Source: patent US20140227408A1, “MEAT TREATMENT AND PRESERVATION METHOD” (RED MEAT AS, priority 2011, published 2014)
Marks after values point to notes of the source that are not given here.

Columns and labels:
Design in all cases: species or system cattle
[1] = Colour L*, a*, b* of treated ground beef, low oxygen packaging (Example 5); conditions: for L* / a* / b*: citrate High level (0.025 mol/kg), low oxygen, adjusted mean ± standard error
From the text: (§1) Beef M. semimembranosus (M.S.) and beef fat tissue were collected four days post mortem (Fatland A/S, Oslo, Norway). The packaging day is defined as day zero, however, the tissues were 4 days post mortem on packing day. A piece of meat from proximal end was cut from each muscle in order to measure oxygen consumption, pH and surface colour. Fat tissue from pigs fed rapeseed and vitamin E to enhance the content of polyunsaturated fatty acids were from HKScan (Ruokatalo, Finland). The fat tissue was transported vacuum-packaged and frozen. Samples of minced fat tissue were removed for fatty acid analysis.
(§2) The beef muscles were cut into pieces of approximately 10×5 cm and mixed to 14% w/w fat by using the fat tissues. Beef fat and pork fat tissues were ground twice with either raw beef from four young (16-19 months) or four old (46-81 months) cattle. […] The ground meat was blended manually with solutions (all at pH 5.8) with various TCA and glycolytic ingredients (see below).
(§3) To maintain pH at 5.8 the solutions were prepared by mixing the acid form and the corresponding sodium salt of these chemicals.
[…] The solution was quickly and properly stirred into the minced meat and the blended system was subsequently packaged. […] Two reference samples with 40 ml of distilled water added to 360 gram of ground beef were also prepared each of the four production day, i.e. altogether 8 references were prepared. The samples were packaged in either low or high oxygen atmosphere.
(§4) The ground beef was packaged in black amorphous polyethylene terephthalate (APET) trays that were sealed with ethylene vinyl alcohol (EVOH) top films. The trays and films (Wipak Multipet and Wipak Biaxer, both Wipak, Nastola, Finland) had oxygen transmission rates of 7 and 5 cm^3/m^2/24 h at 23° C. at 50% relative humidity. Packaging was carried out within 1 hour after grinding. The samples were stored in darkness at 4° C. for 8 days in a high-oxygen atmosphere (75% oxygen and 25% CO2) and for 13 days in a low-oxygen atmosphere (60% CO2 and 40% N2). These food grade gas mixtures were supplied by AGA (Oslo, Norway).
(§5) The colour of the ground meat samples was measured with a Konica Minolta Chroma Meter CR 410 (Konica Minolta Sensing Inc., Osaka, Japan) using the glass light projection tube CR A 33e with wide illumination area (61 mm) and illuminant D65. The instrument was calibrated each day by measuring a white ceramic plate (L*=97.9; a*=0.05; b*=2). All colour measurements were made with 3 replicates (CIE, 1976, “Recommendations on uniform colour spaces-colour difference equations” (Vol. Supplement No. 2 to CIE). Paris, France: Commission Internationale de l'Eclairage).
(§6) The colour of the samples packaged in high O2 was measured after 0, 1, 3, 6 and 8, days of storage from packaging day, while low O2 samples were measured at 0 to 13 days of storage using Minolta and reflectance measurements.
The experimental design is visualized in FIG. 5. A 2^2 design (animal age and type of fat tissue) was split over 4 experimental days (FIG. 5, and Tables 10 and 11). To each corner of this 2^2 design was added a 3 component (succinate, pyruvate and glutamate-malate additions; 0, 50 and 100%) simplex lattice mixture design with 2 additional centre experiments as shown in FIG. 5.

[2] = Colour L*, a*, b* of treated ground beef, high oxygen packaging (Example 5); conditions: citrate High level
From the text: as §1, §2, §3
(§7) 40 g of 0.1 M or 0.05 M solutions were added to ground beef-fat mixture (360 g) to a total weight of 400 g. The solution was quickly and properly stirred into the minced meat and the blended system was subsequently packaged. […] Two reference samples with 40 ml of distilled water added to 360 gram of ground beef were also prepared each of the four production day, i.e. altogether 8 references were prepared. The samples were packaged in either low or high oxygen atmosphere.
as §4, §5, §6
The experimental design is visualized in FIG. 5. A 2^2 design (animal age and type of fat tissue) was split over 4 experimental days (FIG. 5, and Tables 10 and 11). […] 5.

[3] = system: myoglobin in ground beef; assay: Myoglobin states (DMb, OMb, MMb) by reflectance spectra of treated ground beef, low oxygen packaging (Example 5); conditions: for DMb / MMb / OMb: citrate High level (0.025 mol/kg), low oxygen, adjusted mean ± standard error
From the text: as §1, §2, §3, §7, §4
(§8) Samples were scanned, […], with a Foss NIRSystems OptiProbe™ 6500 Analyzer (Foss NIRSystems Inc., Maryland, USA) without opening of the package. The package was turned upside-down before measurements so that the meat would fall on the packaging film. The samples were scanned with three random placements of the probe on the package surface in order to increase the scanning area and reduce the measurement errors. Thirty-two scans for both reference and samples were acquired and averaged on each measured area. All measurements were performed at room temperature (approx. 20° C.) according to Khatri, et al. (Meat Sci. (2012) 91(3): 223-231). These spectra were used to predict OMb, MMb and DMb levels. Calibration was performed using comminuted meat with 10% w/w added water.
as §6
(§9) The statistical analysis was performed according to the approach described by Langsrud et al. (J. Appl. Statist. (2007) 34:1275-1296) and implemented in the 50-50 MANOVA software (http://www.langsrud.com/stat/program.htm). This program handles mixture designs as generalized categorical variables (generalized ANOVA). When using this method one can always formulate equivalent models that use the individual mixture variables as ordinary (one degree of freedom) regression variables. Then one arbitrary mixture variable has to be omitted (slack variable).

[4] = system: myoglobin in ground beef; assay: Myoglobin states (DMb, OMb, MMb) by reflectance spectra of treated ground beef, high oxygen packaging (Example 5); conditions: for DMb / MMb / OMb: citrate High level, high oxygen, adjusted mean ± standard error
From the text: as §1
The beef muscles were cut into pieces of approximately 10×5 cm and mixed to 14% w/w fat by using the fat tissues. Beef fat and pork fat tissues were ground twice with either raw beef from four young (16-19 months) or four old (46-81 months) cattle. The meat had pH of 5.65 and was ground with a Seydelmann ME-130 (Seydelmann, Stuttgart, Germany) grinder through a plate with 3 mm openings. The ground meat was blended manually with solutions (all at pH 5.8) with various TCA and glycolytic ingredients (see below).
as §3, §7, §4, §8, §6
as §9, with “variable). […]” for “variable).”

[5] = Colour (b*, a*) of minced beef mixed with test brines, stored in low-oxygen MAP (Examples 1-2); conditions: for b*: low oxygen (MAP), day 6 of storage, amount 1 = 0.1 mol per kg meat
Procedure: (§10) Beef fat and pork fat (high degree of unsaturation) were used with raw semimembranosus muscle from young and old cattle. Beef from the hind leg was removed, weighed, chopped, mixed with fat (14% by weight), and the various test compounds were added to the minced meat. The mixtures were packed into boxes and sealed with plastic sheeting. Packing was done with MAP to yield a low-oxygen atmosphere (60% CO2 and 40% N2) and also under a high-oxygen atmosphere (75% oxygen and 25% CO2). The samples were stored in darkness at 4° C. from 0 to 8 days for the high-oxygen atmosphere and 0 to 13 days for the MAP samples. A Cheers Packaging Machine (Promens) was used for packaging of samples. Triplicate reference samples with only 40 ml of distilled water mixed and packaged as described above were evaluated at days 6 and 8 for the high-oxygen environment and at days 6, 8, 10 and 13 for the MAP environment.
(§11) Samples of test compounds were prepared with succinate, glutamate, malate, pyruvate and citrate in different combinations, either as single chemicals or as mixtures. The acid and conjugate base of each active component was added in the appropriate ratio to provide the solutions (brines) with a pH of 5.8. As will be clear from the foregoing description, the “succinate” used in this experiment was a combination of succinic acid and sodium succinate. The “glutamate”, “malate”, etc. were used equivalently.
(§12) Meat and fat was cut into small pieces and minced (3 mm holes). 40 g of brine was added to 360 g mince and packed in the plastic packing.
(§13) Several variables were included in the design of the experiment, using a 2^3 factorial design. […] Malate and glutamate were considered together in the design and analysis, but their ratio was varied in the experiments from pure malate to pure glutamate.
(§14) Colour changes in the samples were measured with a FOSS NIRSystems™ 6500 analyser and a Konica Minolta Chroma meter CR 410 (Konica Minolta Sensing Inc., Osaka, Japan). Colour was measured using the parameters L*, a* and b* at 0, 1, 3, 6 and 8 days for samples stored in 75% oxygen. Colour changes of the samples packaged in MAP were measured at 0, 1, 3, 6, 8, 10 and 13 days of storage time.
Results from the experiments carried out on the various meat and fat samples are shown below in Tables 1 to 8. Values given for the amount of active agents in Tables 1 to 8 correspond to the molar proportion of the given agent within the brine/meat mixture, where a value of 1 corresponds to 0.1 moles active agent per kg of meat, a value of 0.5 corresponds to 0.05 mol/kg, etc. […] The b* values, which are considered to be most representative of the colour changes in the meat being tested, are shown. All results correspond to measurements made on day 6 of storage
The data from the experiment described in Example 1 were analyzed using an ANOVA model with all main effect and second and higher order effects according to the method described in Langsrud, Ø. (“50-50 Multivariate Analysis of Variance for Collinear Responses” The Statistician (2002) 51, pp. 305-317). […] The mixture design was fractional.

[6] = Colour (b*) of minced beef mixed with test brines, stored in high-oxygen atmosphere (Example 1); conditions: day 6 of storage, amount 1 = 0.1 mol per kg meat
Procedure: as §10, §11, §12, §13, §14
Results from the experiments carried out on the various meat and fat samples are shown below in Tables 1 to 8. Values given for the amount of active agents in Tables 1 to 8 correspond to the molar proportion of the given agent within the brine/meat mixture, where a value of 1 corresponds to 0.1 moles active agent per kg of meat, a value of 0.5 corresponds to 0.05 mol/kg, etc. […]
The data from the experiment described in Example 1 were analyzed using an ANOVA model with all main effect and second and higher order effects according to the method described in Langsrud, Ø. […]

[7] = Day 1, adjusted mean ± standard error
[8] = Day 3, adjusted mean ± standard error
[9] = Day 6, adjusted mean ± standard error
[10] = Day 8, adjusted mean ± standard error
[11] = old beef muscle mixed with beef fat
[12] = old beef muscle mixed with pork fat
[13] = young beef muscle mixed with pork fat

## O=C(O)CC(O)C(=O)O (racemic) [malate]
[1]; low oxygen packaging
  effect on yellowness (b*), in words: nominally higher b* values

## O=C(O)CC(O)(CC(=O)O)C(=O)O [Citrate]
[2]; [7]
  L*: 34.2 ± 0.3
  a*: 13.0 ± 0.2*
  b*: 4.5 ± 0.1*
[2]; [8]
  L*: 33.6 ± 0.3*
  a*: 12.3 ± 0.2*
  b*: 4.4 ± 0.1*
[2]; [9]
  L*: 33.8 ± 0.3
  a*: 11.0 ± 0.3
  b*: 4.1 ± 0.2*
[2]; [10]
  L*: 33.9 ± 0.3
  a*: 10.3 ± 0.2
  b*: 4.0 ± 0.1*
[1]; Day 1
  L*: 33.5 ± 0.3
  a*: 6.6 ± +.3*
  b*: 2.3 ± 0.2
[1]; Day 3
  L*: 33.0 ± 0.3
  a*: 7.1 ± 0.2
  b*: 2.3 ± 0.1*
[1]; Day 6
  L*: 33.3 ± 0.2*
  a*: 7.5 ± 0.2
  b*: 2.2 ± 0.1*
[1]; Day 8
  L*: 33.4 ± 0.2*
  a*: 7.5 ± 0.2
  b*: 2.1 ± 0.1*
[1]; Day 10
  L*: 33.4 ± 0.2*
  a*: 7.6 ± 0.2
  b*: 2.1 ± 0.1
[1]; Day 13
  L*: 33.2 ± 0.3*
  a*: 7.6 ± 0.4
  b*: 2.1 ± 0.2*
[3]; Day 1
  DMb: 42.1 ± 3.3 %
  MMb: 50.2 ± 3.0 %
  OMb: 7.8 ± 0.4 %
[3]; Day 3
  DMb: 55.5 ± 3.3 %
  MMb: 39.1 ± 3.1 %
  OMb: 5.5 ± 0.4%
[3]; Day 6
  DMb: 64.9 ± 3.1%
  OMb: 3.7 ± 0.4%
[3]; Day 8
  DMb: 66.6 ± 3.1%
  OMb: 4.1 ± 0.4%
[3]; Day 10
  DMb: 69.9 ± 3.0%
  MMb: 26.3 ± 2.9 %
  OMb: 3.8 ± 0.3%
[3]; Day 13
  DMb: 72.3 ± 4.1 %
  MMb: 23.9 ± 3.8 %
  OMb: 3.8 ± 0.5 %
[3]; low oxygen packaging
  effect on myoglobin states (DMb, OMb, MMb), in words: increased OMb and MMb while the DMb was reduced
[4]; Day 1
  DMb: 0.0 ± 0.0 %
  MMb: 6.6 ± 0.3%
  OMb: 93.4 ± 0.6%
[4]; Day 3
  DMb: 0.0 ± 0.0%
  MMb: 10.5 ± 0.6%
  OMb: 89.5 ± 0.6%
[4]; Day 6
  DMb: 0.5 ± 0.3%
  MMb: 20.4 ± 0.6%
  OMb: 79.1 ± 0.7%
[4]; Day 8
  DMb: 0.6 ± 0.2%
  MMb: 26.7 ± 0.7%
  OMb: 72.7 ± 0.8%
[4]; high oxygen packaging
  effect on myoglobin states (DMb, OMb, MMb), in words: nominal higher values for OMb

## N[C@@H](CCC(=O)O)C(=O)O [glutamate]
[1]; low oxygen packaging
  effect on redness (a*), in words: nominally higher a* values

## O=C(O)CCC(=O)O [succinate 1.00, succinate]
[5]; low-oxygen environment, zero citrate, after 6 days storage, relative amounts of succinate, pyruvate, glutamate + malate
  a*: 9.81
[5]; [11]
  b*: 1.48
[5]; [12]
  b*: 0.98
[5]; young beef muscle mixed with beef fat, 4° C.
  b*: 1.07
[5]; [13]
  b*: 1.34
[6]; [11]
  b*: 3.45
[6]; [12]
  b*: 3.77
[6]; young beef muscle mixed with beef fat
  b*: 4.01
[6]; [13]
  b*: 4.70
